Test results published in patent publication US20190284243A1, “BINDING PEPTIDES” (University of Copenhagen, priority 2016, published 2019).
pKd: −log10 of the molar value. Bridge positions count the residues as written; N and C are the ends. Square brackets hold non-standard residues; d marks the D form. Ends that are not written are not given here. Aha = [N-]=[N+]=NCC[C@H](N)C(=O)O; Pra = C#CC[C@H](N)C(=O)O

Experiments:
GFP = GFP 60 nM, both bead types incubated at the same time
Method: GFP (60 nM) was incubated with different β-body beads at the same time, a first type of β-body beads specific for GFP (β-body SEQ ID NO: 1;
[…]) and a second type of β-body beads specific for IL1 (β-body SEQ ID NO: 5).

Il1 [1] = test: Selectivity assay GFP vs. IL1: beads incubated with ROX-IL1; format: binding; conditions: ROX-IL1 100 nM, both bead types incubated at the same time
Description: The same experiment was repeated with IL1.

Interleukin 1 = test: Sandwich binding assay on PEGA beads, IL1 model
Description: (§1) For sandwich assays β-bodies identified as described in Examples 1 and 2 were synthesized by standard Fmoc-based solid phase peptide synthesis on biocompatible PEGA-beads (e.g. PEGA1900 which has a porosity allowing penetration of proteins up to 70 kDa). PEGA beads are available from Sigma Aldrich.
The intensity of the fluorescence is a measure of the concentration of IL1 and the affinity of the interaction.

[2] = molecular target: T1, glycine receptor binding site of gephyrin (peptide binding site) (Homo sapiens, UniProt Q9NQX3); test: Affinity of β-bodies to the gephyrin peptide binding site; conditions: compared with original peptide SEQ ID NO: 41
T1 sequence (Q9NQX3 1-736): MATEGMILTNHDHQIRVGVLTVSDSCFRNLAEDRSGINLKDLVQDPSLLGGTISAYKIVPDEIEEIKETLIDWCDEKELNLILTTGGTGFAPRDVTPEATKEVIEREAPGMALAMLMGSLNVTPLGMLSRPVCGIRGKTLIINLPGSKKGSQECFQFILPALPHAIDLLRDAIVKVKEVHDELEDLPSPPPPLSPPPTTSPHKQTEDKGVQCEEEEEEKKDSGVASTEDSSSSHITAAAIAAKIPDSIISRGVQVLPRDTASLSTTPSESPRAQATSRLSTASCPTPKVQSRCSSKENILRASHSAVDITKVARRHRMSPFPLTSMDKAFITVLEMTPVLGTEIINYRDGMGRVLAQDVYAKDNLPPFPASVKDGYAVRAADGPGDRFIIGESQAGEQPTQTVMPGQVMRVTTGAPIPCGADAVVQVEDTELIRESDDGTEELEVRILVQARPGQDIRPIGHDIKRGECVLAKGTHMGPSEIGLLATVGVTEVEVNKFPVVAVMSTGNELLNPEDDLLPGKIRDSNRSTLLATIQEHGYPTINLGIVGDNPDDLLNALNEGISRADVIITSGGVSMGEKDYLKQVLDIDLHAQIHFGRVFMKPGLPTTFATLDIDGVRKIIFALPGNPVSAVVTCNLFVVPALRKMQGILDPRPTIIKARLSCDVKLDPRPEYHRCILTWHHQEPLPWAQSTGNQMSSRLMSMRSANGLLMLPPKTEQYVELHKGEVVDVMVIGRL
Method: The following β-body TTVTGTLYPGTLLGFETT (SEQ ID NO: 41) underwent optimization via alanine scanning. The resulting 9 β-bodies were tested for their affinity to the glycine receptor binding site of gephyrin (peptide binding site). The affinity of the original peptide could be improved and optimized β-bodies were found having the following sequences CTVTGTLYPGTLLGFETC (SEQ ID NO: 42) and TTVTGTLYPGTLLGAATT (SEQ ID NO: 43).

Beads modified with (1) = test: Fluorescent β-bodies incubated with beads modified with (1); format: binding; conditions: FIG. 8
Method: (§2) A fluorescent probe was attached to (1), (2) AND (3). The fluorescent β-bodies were then incubated with: • Beads modified with NHAc; or • Beads modified with (1); or • Beads modified with (2).

Beads modified with (2) = test: Fluorescent β-bodies incubated with beads modified with (2); format: binding; conditions: for Binding of fluorescent β-body to beads modified with (2): FIG. 8; for pKd: bead-(2) with fluorescent β-body
Method: as §2

Gephyrin = molecular target: T2, Gephyrin (Homo sapiens, UniProt Q9NQX3); test: Binding of β-bodies with the target compound (Table 1), Gephyrin; conditions: Purpose Gephyrin; tested for binding with the target compound
T2 sequence (Q9NQX3 1-736): T1 sequence (Q9NQX3 1-736)

Il1 [3] = test: Binding of β-bodies with the target compound (Table 1), Il1; conditions: Purpose Il1; tested for binding with the target compound
POI = test: Screening of OBOC β-body library with AMC-labelled POI; format: binding; conditions: POI 10 nM, 2 h incubation; site of interaction not determined
Method: The library of K(TX)4PG(XT)4EG was synthesized on HMBA-PEGA1900 resin by the split—mix method essentially as described in Christensen et al, 2003 and was deprotected with 95% TFA. The POI was dissolved in phosphate buffer at pH 7.5, labeled with aminomethylcoumarin using AMC-(CH2)3—CO—OSu (4 eqv, 30 min) and purified by FPLC. […] The protein was dissolved at 100 nM concentration and the library was incubated for 2 h with this solution at 10 fold dilution (10 nM). The library was inspected under a ICX73 fluorescence microscope using a […]. Beads with strong AMC-fluorescence were collected in separate Eppendorph tubes using a microsyringe. The beads were washed and 5% triethylamine in water was added. After incubation overnight the supernatant was transferred to another eppendorph tube and the bead was washed with 70% acetonitril/water. The combined solutions were concentrated to dryness twice using a speedvacc and the residue dissolved in 50% acetonitrile/water. […] The site of interaction on the POI was not determined.

interleukin 6 = interleukin 6 (Homo sapiens, UniProt P05231); test: Sandwich binding assay on PEGA beads, IL6 model
Method: as §1
The sandwich binding assay was performed as follows: two beads with ligand E prepared as described above were contained in separate wells and were added to 50 μL MilliQ water in a microtiter well containing 100 nM of the peptide F. […]
The beads were washed twice with PBS to improve signal to noise. The well was imaged with an ICX73 fluorescence microscope (Olympus) using a ROX filter cube.

Il2 = Il2 (Homo sapiens, UniProt P60568); test: Binding of β-bodies with the target compound (Table 1), Il2; conditions: Purpose Il2; tested for binding with the target compound
Interleukin 2 = Interleukin 2 (Homo sapiens, UniProt P60568); test: Sandwich binding assay on PEGA beads, IL2 model
Method: as §1
The sandwich binding assay was performed as follows: four beads with ligand C prepared as described above were added to 50 μL MilliQ water in a microtiter well containing 100 nM of the peptide D. The well was imaged with an ICX73 fluorescence microscope (Olympus) using a ROX filter cube.
The intensity of the fluorescence is a measure of the concentration of IL2 and the affinity of the interaction. The result obtained after 3 min. incubation is shown in FIG. 10 and after 20 min. incubation in FIG. 1D.

[4] = ligand 1 beads + 100 nM ligand 2, Interleukin 1 50 nM, 20 min
[5] = ligand 1 beads + 100 nM ligand 2, without IL1 (interaction between the two β-bodies)

Sequence of Interleukin 2 (P60568 21-153, species assumed): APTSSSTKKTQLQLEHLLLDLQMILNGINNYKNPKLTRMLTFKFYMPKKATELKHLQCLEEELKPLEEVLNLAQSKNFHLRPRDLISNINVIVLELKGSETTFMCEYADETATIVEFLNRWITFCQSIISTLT
Sequence of interleukin 6 (P05231 30-212, species assumed): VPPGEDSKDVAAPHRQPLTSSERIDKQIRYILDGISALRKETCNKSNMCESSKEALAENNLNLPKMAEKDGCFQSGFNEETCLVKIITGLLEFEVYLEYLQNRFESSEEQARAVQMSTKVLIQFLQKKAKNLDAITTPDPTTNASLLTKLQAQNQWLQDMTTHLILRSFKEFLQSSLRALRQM
Sequence of Il2 (P60568 21-153, species assumed): as the sequence (P60568 21-153, species assumed) above

Substance: ETDTYTETYPGYTSTWTITD (Designed peptide) [SEQ ID NO: 5]
- Binding of β-body beads to GFP (GFP): only β-body beads specific for GFP underwent binding
- Binding of β-body beads to IL1 (Il1 [1]): underwent binding
- ROX fluorescence accumulation in the beads (Interleukin 1; [4]): positive signal
- ROX fluorescence accumulation in the beads (Interleukin 1; ligand 1 beads + 100 nM ligand 2, Interleukin 1 50 nM, 20 min, listed as A): accumulation of significant ROX fluorescence
- ROX fluorescence accumulation in the beads (Interleukin 1; [5]): no signal
- ROX fluorescence accumulation in the beads (Interleukin 1; ligand 1 beads + 100 nM ligand 2, without IL1 (interaction between the two β-bodies), listed as A): No fluorescence accumulation over background

Substance: TKTDRVTEPGRTMTFTGT (Designed peptide) [SEQ ID NO: 7]
- ROX fluorescence accumulation in the beads (Interleukin 1; [4]): positive signal
- ROX fluorescence accumulation in the beads (Interleukin 1; ligand 1 beads + 100 nM ligand 2, Interleukin 1 50 nM, 20 min, listed as B): accumulation of significant ROX fluorescence
- ROX fluorescence accumulation in the beads (Interleukin 1; [5]): no signal
- ROX fluorescence accumulation in the beads (Interleukin 1; ligand 1 beads + 100 nM ligand 2, without IL1 (interaction between the two β-bodies), listed as B): No fluorescence accumulation over background

Substance: TTVTGTLYPGTLLGAATT (Designed peptide) [SEQ ID NO: 43]
- affinity to the glycine receptor binding site of gephyrin [2]: improved

Substance: TTYTYPGDTFTI (Designed peptide) [SEQ ID NO: 58]
- Binding of fluorescent β-body to beads modified with (1) (Beads modified with (1)): best bind
- Binding of fluorescent β-body to beads modified with (2) (Beads modified with (2)): high affinity

Substance: Pra-TVTGTLYPGTLLGFET-Abu(N3) ([Pra]TVTGTLYPGTLLGFET[Aha]; triazole 1-18 (inferred)) [SEQ ID NO: 34]
- affinity to the glycine receptor binding site of gephyrin [2]: unchanged

Substance: PraTWTLTHTPGTMEITET-Abu(N3)-OH ([Pra]TWTLTHTPGTMEITET[Aha]-OH; triazole 1-18 (inferred)) [SEQ ID NO: 39]
- Binding (Gephyrin): Medium

Substance: EPraDTYTETYPGRTITWTIAbu(N3)DG (E[Pra]DTYTETYPGRTITWTI[Aha]DG; triazole 2-19 (inferred)) [SEQ ID NO: 9]
- Binding (Il1 [3]): High

Substance: TFTFTFPGLTRTHT [SEQ ID NO: 59]
- pKd (Beads modified with (2)): 5.30

Substance: TWTETYTWTEPGDTQTLTITNT (Designed peptide) [SEQ ID NO: 11]
- Binding (Il1 [3]): High

Substance: KTQTYNGTGPGRTGTVTYTEG (Designed peptide) [SEQ ID NO: 55]
- Binding of library beads to AMC-labelled POI (AMC-fluorescence) (POI): strong binding

Substance: TITKTARYTMPGKTLTKTGTLTG (Designed peptide) [SEQ ID NO: 45]
- Binding (Gephyrin): Medium

Substance: CTVTGTLYPGTLLGFETC (Designed peptide) [SEQ ID NO: 42]
- affinity to the glycine receptor binding site of gephyrin [2]: improved

Substance: Pra-YTYTDTTPGVTRTLTWG-Abu(N3)-OH ([Pra]YTYTDTTPGVTRTLTWG[Aha]-OH; triazole 1-19 (inferred)) [SEQ ID NO: 38]
- Binding (Gephyrin): Medium

Substance: KTGTQNLTGPGRTHTQTATEG (Designed peptide; PEPTIDE (1)..(21) GFP) [SEQ ID NO: 3]
- Binding of library beads to AMC-labelled POI (AMC-fluorescence) (POI): strong binding

Substance: Pra-ITKTARYTMPGKTLTKTGTL-Abu(N3)-G ([Pra]ITKTARYTMPGKTLTKTGTL[Aha]G; triazole 1-22 (inferred)) [SEQ ID NO: 46]
- Binding (Gephyrin): Medium

Substance: KTYTYNYTGPGRTSTATLTEG (Designed peptide) [SEQ ID NO: 56]
- Binding of library beads to AMC-labelled POI (AMC-fluorescence) (POI): strong binding

Substance: TMTDTDTYPGFTDTLTHA (Designed peptide) [SEQ ID NO: 16]
- ROX fluorescence accumulation in the bead (interleukin 6; ligand 5 bead + 100 nM ligand 6, interleukin 6 20 nM, 20 min): positive signal
- ROX fluorescence accumulation in the bead (interleukin 6; ligand 5 bead + 100 nM ligand 6, interleukin 6 20 nM, 20 min, listed as F): accumulation of significant ROX fluorescence
- ROX fluorescence accumulation in the bead (interleukin 6; ligand 5 bead + 100 nM ligand 6, without IL6 (interaction between the two β-bodies)): no signal
- ROX fluorescence accumulation in the bead (interleukin 6; ligand 5 bead + 100 nM ligand 6, without IL6 (interaction between the two β-bodies), listed as F): No fluorescence accumulation over background

Substance: Abu(N3)-TVTGTLYPGTLLGFET-Pra ([Aha]TVTGTLYPGTLLGFET[Pra]; triazole 1-18 (inferred)) [SEQ ID NO: 44]
- affinity to the glycine receptor binding site of gephyrin [2]: unchanged

Substance: TYTYTYPGLTRTHT [SEQ ID NO: 57]
- Binding of fluorescent β-body to beads modified with (1) (Beads modified with (1)): high affinity
- Binding of fluorescent β-body to beads modified with (2) (Beads modified with (2)): best bind
- pKd (Beads modified with (2)): 6.15

Substance: TRTLTYTEPGITQTKTEA (Designed peptide) [SEQ ID NO: 14]
- Binding (Il2): High
- ROX fluorescence accumulation in the beads (Interleukin 2; ligand 3 beads + 100 nM ligand 4, Interleukin 2 50 nM, 3 and 20 min): positive signal
- ROX fluorescence accumulation in the beads (Interleukin 2; ligand 3 beads + 100 nM ligand 4, Interleukin 2 50 nM, 3 and 20 min, listed as D): accumulation of significant ROX fluorescence
- ROX fluorescence accumulation in the beads (Interleukin 2; ligand 3 beads + 100 nM ligand 4, without IL2 (interaction between the two β-bodies)): no signal
- ROX fluorescence accumulation in the beads (Interleukin 2; ligand 3 beads + 100 nM ligand 4, without IL2 (interaction between the two β-bodies), listed as D): No fluorescence accumulation over background

Substance: HTWTDTLTRPGYTVTHTLTL (Designed peptide) [SEQ ID NO: 17]
- ROX fluorescence accumulation in the bead (interleukin 6; ligand 5 bead + 100 nM ligand 6, interleukin 6 20 nM, 20 min, listed as E): accumulation of significant ROX fluorescence
- ROX fluorescence accumulation in the bead (interleukin 6; ligand 5 bead + 100 nM ligand 6, interleukin 6 20 nM, 20 min, listed as ligand 5): positive signal
- ROX fluorescence accumulation in the bead (interleukin 6; ligand 5 bead + 100 nM ligand 6, without IL6 (interaction between the two β-bodies), listed as E): No fluorescence accumulation over background
- ROX fluorescence accumulation in the bead (interleukin 6; ligand 5 bead + 100 nM ligand 6, without IL6 (interaction between the two β-bodies), listed as ligand 5): no signal
